The structures appear in SMILES notation.

Sequence of interaction of human SOS1 (SOS1) with human K-RasG12C (Q07889 564-1049 limits assumed): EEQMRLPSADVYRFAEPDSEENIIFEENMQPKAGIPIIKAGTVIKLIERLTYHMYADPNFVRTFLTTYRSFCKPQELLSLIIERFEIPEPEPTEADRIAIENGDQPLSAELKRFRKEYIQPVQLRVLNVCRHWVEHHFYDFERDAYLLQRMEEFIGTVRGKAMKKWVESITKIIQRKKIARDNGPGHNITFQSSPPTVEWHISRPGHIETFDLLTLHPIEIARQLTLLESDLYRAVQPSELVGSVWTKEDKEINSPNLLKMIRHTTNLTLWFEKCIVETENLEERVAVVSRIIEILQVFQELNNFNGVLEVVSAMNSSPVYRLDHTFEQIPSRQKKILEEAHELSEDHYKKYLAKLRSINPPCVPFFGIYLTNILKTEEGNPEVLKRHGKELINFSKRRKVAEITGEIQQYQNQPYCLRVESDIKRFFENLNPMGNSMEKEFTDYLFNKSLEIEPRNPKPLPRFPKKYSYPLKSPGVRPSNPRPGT

In the test the target is interaction of human SOS1 (SOS1) with human K-RasG12C (Homo sapiens (Human), UniProt Q07889). Briefly: Biochemical assay: hK-RasG12C interaction assay with hSOS1 (HTRF). The test is classed as binding. To be noted: GST-hK-RasG12C with His-hSOS1, 60 min incubation at 20° C., mean, read-out: K-RasG12C - SOS interaction assay IC50 (mean). The method, boiled down:
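Compounds, duplicates at 11 concentrations from 0.073 nM to 20 µM, were preincubated 2 min with 10 nM GST-hK-RasG12C, then 20 nM His-hSOS1 was added, all at 20 °C. After 60 min, 665/620 nm HTRF ratio normalized to DMSO and SOS1-free controls; IC50 by 4-parameter fit.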
For `Cc1nc(N[C@H](C)c2cccc(C(F)(F)[C@H](O)C(C)(C)C)c2F)c2cc(P(C)(C)=O)ncc2n1` (relative stereo) [Example 137, (2R*)-1-{3-[(1R)-1-{[6-(dimethylphosphoryl)-2-methylpyrido[3,4-d]pyrimidin-4-yl]amino}ethyl]-2-fluorophenyl}-1,1-difluoro-3,3-dimethylbutan-2-ol], the IC50 is 4.04 nM. As to `Cc1nc(N[C@H](C)c2cccc(C(F)(F)F)c2C)c2cc(P(C)(C)=O)c(C(F)(F)F)nc2n1` [Example 22, 6-(dimethylphosphoryl)-2-methyl-N-{(1R)-1-[2-methyl-3-(trifluoromethyl)phenyl]ethyl}-7-(trifluoromethyl)pyrido[2,3-d]pyrimidin-4-amine], the half-maximal inhibitory concentration (IC50) was 18.7 nM. As to `CCC(O)C(F)(F)c1cccc([C@@H](C)Nc2nc(C)nc3cnc(P(C)(C)=O)cc23)c1F` (single isomer, unassigned) [Example 89, (2R*)-1-{3-[(1R)-1-{[6-(dimethylphosphoryl)-2-methylpyrido[3,4-d]pyrimidin-4-yl]amino}ethyl]-2-fluorophenyl}-1,1-difluorobutan-2-ol], the IC50 came out at 6.06 nM. The value for `Cc1nc(N[C@H](C)c2cccc(C(F)(F)CO)c2F)c2cc(P(C)(C)=O)ccc2n1` [Example 33, 2-{3-[(1R)-1-{[6-(dimethylphosphoryl)-2-methylquinazolin-4-yl]amino}ethyl]-2-fluorophenyl}-2,2-difluoroethan-1-ol] was 7.06 nM. For the molecule `Cc1nc(N[C@H](C)c2cccc(C(F)(F)F)c2C)c2cc(P3(=O)CCCC3)ccc2n1` [Example 104, 1-[2-methyl-4-{{(1R)-1-[2-methyl-3-(trifluoromethyl)phenyl]ethyl}amino)quinazolin-6-yl]-1lambda^5-phospholan-1-one], the IC50 stood at 18.8 nM.

For the molecule `CC(=O)NCC(F)(F)c1cccc([C@@H](C)Nc2nc(C)nc3cnc(P4(=O)CCN(C(C)=O)CC4)cc23)c1F` [Example 199], the IC50 came out at 4.61 nM. Regarding `Cc1nc(N[C@H](C)c2cccc(C(F)(F)F)c2C)c2cc(P3(=O)CCN(C(=O)C4(F)CC4)CC3)ncc2n1` [Example 168, 1-(1-fluorocyclopropane-1-carbonyl)-4-[2-methyl-4-({(1R)-1-[2-methyl-3-(trifluoromethyl)phenyl]ethyl}amino)pyrido[3,4-d]pyrimidin-6-yl]-1,4lambda^5-azaphosphinan-4-one], the IC50 turned out to be 12 nM.

As for `Cc1nc(N[C@H](C)c2cccc(C(F)F)c2F)c2cc(P3(=O)CCN(C(=O)C4(O)CC4)CC3)ncc2n1` [Example 156, 4-[4-{{(1R)-1-[3-(difluoromethyl)-2-fluorophenyl]ethyl}amino)-2-methylpyrido[3,4-d]pyrimidin-6-yl]-1-(1-hydroxycyclopropane-1-carbonyl)-1,4lambda^5-azaphosphinan-4-one], the IC50 worked out at 11.4 nM.

`Cc1nc(N[C@H](C)c2cccc(C(F)(F)F)c2C)c2cc(P3(=O)CCN(C(=O)C4(O)CC4)CC3)ncc2n1` [Example 173, 1-(1-hydroxycyclopropane-1-carbonyl)-4-[2-methyl-4-({(1R)-1-[2-methyl-3-(trifluoromethyl)phenyl]ethyl}amino)pyrido[3,4-d]pyrimidin-6-yl]-1,4lambda^5-azaphosphinan-4-one]: the 50% inhibitory concentration (IC50) worked out at 5.62 nM. As for `CCP(C)(=O)c1cc2c(N[C@H](C)c3cccc(C(F)F)c3F)nc(C)nc2cn1` (single isomer, unassigned) [Example 119], the IC50 was determined as 42.9 nM. The result for `Cc1nc(N[C@H](C)c2cccc(C(F)(F)[C@@H](C)O)c2F)c2cc(P(C)(C)=O)ncc2n1` (relative stereo) [Example 113, (2R*)-1-{3-[(1R)-1-{[6-(dimethylphosphoryl)-2-methylpyrido[3,4-d]pyrimidin-4-yl]amino}ethyl]-2-fluorophenyl}-1,1-difluoropropan-2-ol] reads 7.85 nM; that for `Cc1nc(N[C@H](C)c2cccc(C(F)F)c2F)c2cc(P3(=O)CCN(Cc4ccccc4)CC3)ncc2n1` [Example 8, 1-benzyl-4-[4-({(1R)-1-[3-(difluoromethyl)-2-fluorophenyl]ethyl}amino)-2-methylpyrido[3,4-d]pyrimidin-6-yl]-1,4lambda^5-azaphosphinan-4-one], 94 nM; that for `Cc1nc(N[C@H](C)c2cccc(C(F)(F)CO)c2F)c2cc(P3(=O)CC=CC3)ncc2n1` [Example 59, 1-[4-{{(1R)-1-[3-(1,1-difluoro-2-hydroxyethyl)-2-fluorophenyl]ethyl}amino)-2-methylpyrido[3,4-d]pyrimidin-6-yl]-2,5-dihydro-1H-1lambda^5-phosphol-1-one], 7.06 nM. The value for `Cc1nc(N[C@H](C)c2cccc(C(F)F)c2F)c2cc(P3(=O)CCCC3)ccc2n1` [Example 127, 1-[4-{{(1R)-1-[3-(difluoromethyl)-2-fluorophenyl]ethyl}amino)-2-methylquinazolin-6-yl]-1lambda^5-phospholan-1-one] was 23.4 nM. In the case of `Cc1nc(N[C@H](C)c2cccc(C(F)(F)F)c2C)c2cc(P3(=O)CCN(Cc4ccccc4)CC3)ccc2n1` [Example 105, 1-benzyl-4-[2-methyl-4-({(1R)-1-[2-methyl-3-(trifluoromethyl)phenyl]ethyl}amino)quinazolin-6-yl]-1,4lambda^5-azaphosphinan-4-one], the IC50 was 117 nM. In the case of `CCP(C)(=O)c1cc2c(N[C@H](C)c3cccc(C(F)(F)C(C)O)c3F)nc(C)nc2cn1` (single isomer, unassigned) [Example 78, (2R*)-1-{3-[(1R)-1-{{6-[ethyl(methyl)phosphoryl]-2-methylpyrido[3,4-d]pyrimidin-4-yl}amino)ethyl]-2-fluorophenyl}-1,1-difluoropropan-2-ol], the IC50 turned out to be 21.8 nM. Turning to `Cc1nc(N[C@H](C)c2cccc(C(F)(F)F)c2Cl)c2cc(P(C)(C)=O)ncc2n1` [Example 120, N-{(1R)-1-[2-chloro-3-(trifluoromethyl)phenyl]ethyl}-6-(dimethylphosphoryl)-2-methylpyrido[3,4-d]pyrimidin-4-amine], the IC50 was 36.7 nM.

Consider `CNC(=O)C(F)(F)c1cccc([C@@H](C)Nc2nc(C)nc3cnc(P4(=O)CCN(C(C)=O)CC4)cc23)c1F` [Example 47, 2-{3-[(1R)-1-{[6-(1-acetyl-4-oxo-1,4lambda^5-azaphosphinan-4-yl)-2-methylpyrido[3,4-d]pyrimidin-4-yl]amino}ethyl]-2-fluorophenyl}-2,2-difluoro-N-methylacetamide], for which the IC50 is 13.8 nM. In the case of `Cc1nc(N[C@H](C)c2cccc(C(F)(F)C(C)(C)O)c2F)c2cc(P(=O)(C(C)C)C(C)C)cnc2n1` [Example 15, 1-{3-[(1R)-1-({6-[di(propan-2-yl)phosphoryl]-2-methylpyrido[2,3-d]pyrimidin-4-yl}amino)ethyl]-2-fluorophenyl}-1,1-difluoro-2-methylpropan-2-ol], the IC50 was determined as 47.1 nM.

In the case of `CC(=O)N1CCP(=O)(c2cc3c(N[C@H](C)c4cccc(C(F)(F)F)c4C)nc(C)nc3cn2)CC1` [Example 7, 1-acetyl-4-[2-methyl-4-({(1R)-1-[2-methyl-3-(trifluoromethyl)phenyl]ethyl}amino)pyrido[3,4-d]pyrimidin-6-yl]-1,4lambda^5-azaphosphinan-4-one], the IC50 is 6.24 nM. `CC(=O)NCC(F)(F)c1cccc([C@@H](C)Nc2nc(C)nc3cnc(P4(=O)CCN(C(=O)C5CC5)CC4)cc23)c1F` [Example 180, N-(2-{3-[(1R)-1-({6-[1-(cyclopropanecarbonyl)-4-oxo-1,4lambda^5-azaphosphinan-4-yl]-2-methylpyrido[3,4-d]pyrimidin-4-yl}amino)ethyl]-2-fluorophenyl}-2,2-difluoroethyl)acetamide]: the IC50 worked out at 4.6 nM. On to `Cc1nc(N[C@H](C)c2cccc(C(F)(F)CO)c2F)c2cc(P(C)(=O)C(C)C)ncc2n1` (single isomer, unassigned) [Example 135], for which the IC50 is 17 nM.

`Cc1nc(N[C@H](C)c2cccc(C(F)(F)F)c2C)c2cc(P3(=O)CCN(C(=O)C4COC4)CC3)ncc2n1` [Example 164, 4-[2-methyl-4-{{(1R)-1-[2-methyl-3-(trifluoromethyl)phenyl]ethyl}amino)pyrido[3,4-d]pyrimidin-6-yl]-1-(oxetane-3-carbonyl)-1,4lambda^5-azaphosphinan-4-one]: the IC50 is 7.01 nM. The result for `Cc1nc(N[C@H](C)c2cccc(C(F)(F)C(C)(C)O)c2F)c2cc(P(C)(C)=O)c(C)nc2n1` [Example 19, 1-{3-[(1R)-1-{[6-(dimethylphosphoryl)-2,7-dimethylpyrido[2,3-d]pyrimidin-4-yl]amino}ethyl]-2-fluorophenyl}-1,1-difluoro-2-methylpropan-2-ol] reads 14.3 nM.

Regarding `Cc1nc(N[C@H](C)c2cccc(C(F)(F)F)c2C)c2cc(P3(=O)CCN(C(=O)C(C)C)CC3)ncc2n1` [Example 171, 4-[2-methyl-4-{{(1R)-1-[2-methyl-3-(trifluoromethyl)phenyl]ethyl}amino)pyrido[3,4-d]pyrimidin-6-yl]-1-(2-methylpropanoyl)-1,4lambda^5-azaphosphinan-4-one], the IC50 stood at 6.76 nM. The result for `Cc1nc(N[C@H](C)c2cccc(C(F)(F)F)c2C)c2cc(P3(=O)CCN(C(=O)C4CC(F)(F)C4)CC3)ncc2n1` [Example 170, 1-(3,3-difluorocyclobutane-1-carbonyl)-4-[2-methyl-4-({(1R)-1-[2-methyl-3-(trifluoromethyl)phenyl]ethyl}amino)pyrido[3,4-d]pyrimidin-6-yl]-1,4lambda^5-azaphosphinan-4-one] reads 11.3 nM; that for `Cc1nc(N[C@H](C)c2cccc(C(F)F)c2F)c2cc(P3(=O)CCN(C(=O)C4(C#N)CC4)CC3)ncc2n1` [Example 152, 1-{4-[4-{{(1R)-1-[3-(difluoromethyl)-2-fluorophenyl]ethyl}amino)-2-methylpyrido[3,4-d]pyrimidin-6-yl]-4-oxo-1,4lambda5-azaphosphinane-1-carbonyl}cyclopropane-1-carbonitrile], 12.7 nM.

(Values after US20240247015A1, “PHOSPHORUS DERIVATIVES AS NOVEL SOS1 INHIBITORS” (BAYER AKTIENGESELLSCHAFT, priority 2021, published 2024).)
